From patent publication US20240252454A1, “COMPOSITION COMPRISING AN INHIBITOR OF MITOCHONDRIAL TRANSCRIPTION” (LEAD DISCOVERY CENTER GMBH, priority 2021, published 2024)

Legend:
[1] = test system: MV4-11; test: CellTiter-GLO (CTG) assay, combinatorial matrix; format: cell-based; conditions: MV4-11, CTG matrix of the IMT with Bcl-2 inhibitor (Venetoclax, Table 10), wide concentration range
Experimental: To determine the in vitro cellular viability, cellular ATP concentrations were measured using a luminescence-based homogenous assay format, as described here. […] Optimal cell density for each cell line was determined to guarantee linearity. For viability assays with compounds, cells were then seeded at a density of 200 to 1000 per well in 25 μl in 384-well plates (Greiner Bio-One, Frickenhausen, Germany). After overnight incubation at 37° C./5% CO2, 25 nl or 75 nl compounds were added to each sample well by using BIOMEK FXP Laboratory Automation Workstation (Beckman Coulter, USA). Wells with cells and 0.1% or 0.3% DMSO in culture medium were used as positive controls, wells with cells and 10 μM staurosporine (Selleck Chemicals, Huston, USA) in culture medium were used as negative controls. […] Luminescence was measured by Envision Plate Reader (Perkin Elmer, USA). […]
The general suitability of IMT substances for a combination with standard inhibitors of the Bcl-2 signalling pathway was first determined in in vitro cell culture experiments in a matrix format (Table 10). The changes in the cellular ATP content, as an indicator of the metabolic activity of the cells, were measured using the CellTiter-GLO Assay (CTG), as described in Example 1).

[2] = test system: MV4-11; test: apoptosis induction, flow cytometry; format: cell-based
Experimental: (§1) This analysis was carried out using flow cytometry and the established cellular markers for necrosis, apoptosis and living cells.
(§2) These experiments were followed by a broader analysis of the apoptosis induction by the inhibitor combination used in the four AML cell lines MV4-11, MOLM-13, OCI-AML3 and OCI-AML2 (FIG. 3). This analysis was carried out using flow cytometry and the established cellular markers for necrosis, apoptosis and living cells.

[3] = test system: OCI-AML2; test: apoptosis induction, flow cytometry; format: cell-based; conditions: IMT alone, flow cytometry (FIG. 3)
Experimental: as §1, §2

[4] = test system: MOLM-13; test: apoptosis induction, flow cytometry; format: cell-based
Experimental: as §1, §2

[5] = test system: OCI-AML3; test: apoptosis induction, flow cytometry; format: cell-based; conditions: IMT alone, flow cytometry (FIG. 3)
Experimental: as §1, §2

[6] = test system: Venetoclax-resistant PDX AML cells; test: in vivo PDX study in a Venetoclax-resistant model; conditions: NSGS mice
Text: A=overview of the study implementation (corresponding to FIG. 5A) in NSGS mice injected with spleenocytes (n=12). B=flow cytometric analysis and % of live hCD45+AML cells in peripheral blood, spleen and bone marrow of the treated groups; C=immunohistological analysis of bone marrow and spleen tissue sections stained with hcd45 (brown); Quantitative analysis of the hCD45+ cells from C with three technical replicates (n=2). E=blood analysis of the survival group; F=Kaplan-Meier survival analysis (n=6 per group). […] The procedure was similar to that previously described for the CDX model, except for the addition of an endpoint control cohort in each treatment group.

[7] = PK and toxicological studies, plasma and liver concentrations; format: in vivo; conditions: oral combination of the IMT and Venetoclax in 0.5% methyl cellulose in water, NBSGW mice, 4 hours, plasma and liver (FIG. 4)
Experimental: Combinations s of 2-[(3R)-1-[(2R)-2-[4-(2-chloro-4-fluoro-phenyl)-2-oxo-chromen-7-yl]oxypropanoyl]-3-piperidyl]acetic acid and Venetoclax were administered orally in a formulation of 0.5% methyl cellulose in water, before the respective substance concentrations (y-axis) of Venetoclax (left) or 2-[(3R)-1-[(2R)-2-[4-(2-chloro-4-fluoro-phenyl)-2-oxo-chromen-7-yl]oxypropanoyl]-3-piperidyl]acetic acid (right) after 4 hours and extraction from blood plasma or liver tissue were analysed by LC-MS. Error bars indicate the standard deviation around the mean of the multiple measurements.
For this, a vehicle formulation suitable for the oral administration of the combination of Venetoclax and 2-[(3R)-1-[(2R)-2-[4-(2-chloro-4-fluoro-phenyl)-2-oxo-chromen-7-yl]oxypropanoyl]-3-piperidyl]acetic acid was prepared to examine its pharmacokinetic suitability. Since the formulations based on ethanol, PEG-400 and Phosal that have been published for Venetoclax have not proven to be suitable for generating an administrable solution or suspension of IMT and Venetoclax, a simplified formulation of 0.5% methyl cellulose in water was prepared, which was tested initially in PK and toxicological studies in NBSGW mice (FIG. 4). […] On the other hand, doses that could be safely used were established in this mouse model, with which the subsequent studies could be carried out.

[8] = IMT alone, flow cytometry (FIG. 3)
[9] = IMT combined with Venetoclax, compared to Venetoclax alone

Q: Which results are given for C[C@@H](Oc1ccc2c(-c3ccc(F)cc3Cl)cc(=O)oc2c1)C(=O)N1CCC[C@H](CC(=O)O)C1 [2-[(3R)-1-[(2R)-2-[4-(2-chloro-4-fluoro-phenyl)-2-oxo-chromen-7-yl]oxypropanoyl]-3-piperidyl]acetic acid]?
A: combinatorial effect (cellular ATP content) [1]: additive or even synergistic effect; induction of apoptosis [2, 8]: cannot trigger apoptosis; induction of apoptosis [2, 9]: increases the induction of apoptosis significantly; induction of apoptosis [3]: cannot trigger apoptosis; induction of apoptosis [4, 8]: cannot trigger apoptosis; induction of apoptosis [4, 9]: increases the induction of apoptosis significantly; induction of apoptosis [5]: cannot trigger apoptosis; tumour load and circulating hCD45-positive AML cells ([6]; IMT combined with Venetoclax vs individual inhibitors or control, peripheral blood, bone marrow, spleen (FIG. 6)): significantly lower; overall survival (survival analysis) ([6]; IMT/Bcl-2i combination, treatment lasting 21 days): long-lasting, synergistic effect; PK parameters, in particular the plasma and tissue concentrations [7]: do not significantly influence one another
